Test results reported in patent publication US6921766B1, “Blood vessel lipid deposition-preventive agent comprising chymase-inhibitor” (Daiichi Suntory Pharma Co., Ltd., priority 1999, dated 2005).
Entries after “also recorded” stand apart in the source; their conditions may differ.

Columns and labels:
[1] = test system: lipid deposition in the aorta; experiment: Aortic lipid deposition model in hamster induced by high-cholesterol diet; assay type: in vivo, Golden Syrian hamsters; conditions: 100 mg/kg/day orally for 12 weeks
Protocol: An aorta lipid deposition model was induced by a high-cholesterol diet. A high-cholesterol diet was prepared by adding 0.5% cholesterol and 10% coconut oil (KBT Oriental Co.) to a standard rodent feed containing 5.1% fat and 0.07% cholesterol (KBT oriental Co.). 8-week-old male Golden Syrian hamsters (KBT Oriental Co.) (100-130 g) were given the high-cholesterol diet for 12 weeks to induce lipid deposition in the aorta. A group to which a standard rodent feed was given for 12 weeks was used as the control.
An aortic lipid deposition model was generated as described in Example 3 and used as the high-cholesterol diet group (n=6). A group that received the standard rodent diet for 12 weeks was used as the control group (n=6). […]
The effect on lipid deposition by the chymase no inhibitor was evaluated by harvesting the aorta on week 12 after the start of the high-cholesterol diet and performing a histopathological analysis. […]
Then, the sections were washed with 60% isopropanol and distilled water, and counterstained with hematoxylin for 2 minutes. After washing with 1/4 saturated LiCO3, lipid deposition was evaluated by microscopic observation. Also, the area of the lipid deposition region (the region stained to an orange color with Oil red O) was quantitated on the histological pictures by NIH Image software ver. […]

Human heart chymase = target: T1, Human heart chymase (Homo sapiens, UniProt P23946); experiment: Inhibitory activity of test compounds to human chymase (Suc-Ala-Ala-Pro-Phe-MCA substrate); assay type: biochemical; conditions: purified human heart chymase, preincubated 10 min at 30° C., pH 7.5
T1 construct: Human heart chymase was purified according to the method of Urata et al; from tissue; host or cells: human heart
T1 sequence (P23946 22-247): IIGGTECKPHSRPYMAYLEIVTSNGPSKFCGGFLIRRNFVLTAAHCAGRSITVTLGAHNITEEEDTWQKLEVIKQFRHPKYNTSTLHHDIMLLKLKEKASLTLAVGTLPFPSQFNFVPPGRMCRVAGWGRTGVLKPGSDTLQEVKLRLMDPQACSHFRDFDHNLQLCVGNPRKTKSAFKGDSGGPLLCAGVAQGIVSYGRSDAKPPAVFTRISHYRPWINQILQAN
Protocol: Human heart chymase was purified according to the method of Urata et al. (J. Biol. Chem. 265: 22348, 1990). The inhibitory activity of the compound of the present invention was determined as follows. Purified enzyme was diluted with 0.1 M Tris-HCl buffer (pH 7.5) containing 1 M sodium chloride and 0.01% Triton X-100 to appropriate concentrations. Suc-Ala-Ala-Pro-Phe-MCA (Peptide Institute Inc.) was dissolved in 10 mM dimethyl sulfoxide (hereinafter referred to as DMSO) and diluted 20-fold with 0.1 M Tris-HCl buffer (pH 7.5) containing 1 M sodium chloride and 0.01% Triton X-100 to an appropriate concentration to prepare substrate solution.
5 μl of the test sample in DMSO was added to 75 μl of the enzyme solution and preincubated at 30° C. for 10 minutes. Then, 20 μl of the substrate solution was added to the test sample-enzyme mixture, and incubated at 30° C. Ten minutes later, 50 μl of 30% acetic acid was added to stop the enzymatic reaction, and the amount of AMC formed was determined using a fluorophotometer. At the same time, 5 μl of DMSO in stead of the test sample was added and reacted simultaneously as a control. The inhibitory activity to human chymase was calculated based on the value of the control, and then the inhibition percentage and the 50% inhibition concentration (IC50) were determined.

[2] = human, pH 7.2
Protocol: 2 μl of 1 mM test sample in DMSO was added to 198 μl of 50% of human plasma solution in a 50 mM sodium phosphate buffer (pH 7.2) and incubated at 30° C. At 0, 5, and 15 minutes, 800 μl of acetonitrile was added to the test sample-plasma mixture, which was mixed and deproteinized. The supernatant obtained by centrifugation (12,000 rpm, one minute) was diluted with the same volume of distilled water, and the intact compound in the solution was determined by HPLC analysis.
The half life (t1/2) of the test sample in the plasma solution was calculated from the recovery at each time point using an exponential regression analysis.

IC50 (Human heart chymase)	t1/2 (plasma half life) [2]	Structure (SMILES)	lipid deposition area in the aortic cusp region ([1]; FIG. 1, monosodium salt, 100 mg/kg/day)	lipid deposition in the aorta (microscopic examination of the aortic cusp) ([1]; Oil red O staining)
		Nc1cc(S(=O)(=O)n2c(=O)[nH]c3cc(Cl)ccc3c2=O)ccc1C(=O)[O-].[Na+] [Compound 18, 4-[(7-chloro-2,4(1H,3H)-quinazolinedione-3-yl)sulfonyl]anthranilic acid monosodium salt]	decreased; also recorded: significantly suppressed	completely disappeared
1700 nM		O=C(O)C1Oc2ccc(S(=O)(=O)n3c(=O)[nH]c4cc(Cl)ccc4c3=O)cc2NC1=O (racemic) [Compound 29, (±)-6-[(7-chloro-2,4(1H,3H)-quinazolinedione-3-yl)sulfonyl]-3-oxo-1,4-benzoxadine-2-carboxylic acid]		
300 nM	1.62 h	CC(C(=O)O)C(=O)Nc1cccc(S(=O)(=O)n2c(=O)[nH]c3cc(Cl)ccc3c2=O)c1 (centres unmarked) [Compound 13, 2-{3-[(7-chloro-2,4(1H,3H)-quinazolinedione-3-yl)sulfonyl]phenylaminocarbonyl}propionic acid]		
